From patent publication US8546377B2 (AbbVie Inc., priority 2009, dated 2013)
“Also recorded” adds a separate entry of the source. Read-outs that look alike come from different tables or passages of the source.

Legend:
[1] = tested on: PCP-induced hyperactivity; assay: Phencyclidine (PCP)-induced hyperlocomotion in mice; format: in vivo; conditions: test compound ip 30 minutes before phencyclidine 2.0 mg/kg sc, FIG. 4
Method: (§1) (v) Assessment of Effects on Psychostimulant-Induced Hyperlocomotion in Mice
In humans, phencyclidine (PCP) is known to produce a syndrome of behavioral effects which have many characteristics in common with schizophrenia. Therefore, antagonism of PCP effects might be evidence for antipsychotic efficacy of a compound.
(§2) Male NMRI mice (5-week old, Janvier, France) or C57BL/6J mice (6-week old, Janvier, France) were group housed and allowed ad-libitum access to food and water. A 12 hour light/dark cycle was imposed with lights-on period between 0530 and 1730 hours. All testing occurred between 700 and 1300 hours. All procedures were approved by Abbott Institutional Animal Care and Use Committee (USA) or Animal Welfare Officer (Germany) and were conducted in accordance with the National Institutes of Health Guide for Care and Use of Laboratory Animals guidelines and applicable national laws in the facilities accredited by the Association for the Assessment and Accreditation of Laboratory Animal Care.
On the day of experiment, animals were brought from the animal facility into the experimental room and were allowed to acclimatize for at least 30 minutes. Animals were then placed in the test cages for a habituation period of 60 minutes. […] The analyzed data were: fine movements, ambulations and total movements (fine+ambulations). […]

5HT2C receptors [2] = target: T1, 5HT2C receptors (Homo sapiens, UniProt P28335); assay: Human 5-HT2C functional assay in 1321N1 cells (intracellular calcium, FLIPR); format: cell-based; parameters: expressed in transfected cells; host or cells: 1321N1 cells
T1 sequence (P28335 33-458): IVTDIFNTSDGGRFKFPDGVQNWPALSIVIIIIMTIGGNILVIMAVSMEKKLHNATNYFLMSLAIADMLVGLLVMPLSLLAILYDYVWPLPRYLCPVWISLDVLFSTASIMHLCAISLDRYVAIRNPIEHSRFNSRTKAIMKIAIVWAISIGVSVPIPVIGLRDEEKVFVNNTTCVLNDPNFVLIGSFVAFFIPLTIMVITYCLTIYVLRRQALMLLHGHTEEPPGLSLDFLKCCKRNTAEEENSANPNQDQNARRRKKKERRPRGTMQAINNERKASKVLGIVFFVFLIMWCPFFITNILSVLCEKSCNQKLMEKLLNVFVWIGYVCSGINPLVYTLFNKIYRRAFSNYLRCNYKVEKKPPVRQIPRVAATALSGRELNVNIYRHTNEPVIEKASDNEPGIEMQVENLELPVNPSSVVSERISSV
Method in brief: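 Intracellular calcium in 1321N1 cells stably transfected with human 5-HT2C, serum-starved overnight, Fluo4 AM-loaded with 1% probenecid. Compounds at 10^−10 to 10^−5 M final, alone or with 10^−9 M serotonin; peak FLIPR response. EC50 from four-parameter logistic fit; Emax as % of serotonin effect.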

[3] = target: T2, human serotonin 5-HT2c receptor (Homo sapiens, UniProt P28335); assay: Human 5-HT2C receptor radioligand binding assay (agonist site, [125I](±)DOI); conditions: membranes of transfected CHO cells, 0.2 nM [125I](±)DOI, 15 minutes at 37° C.
T2 construct: expressed in transfected cells; host or cells: CHO cells (membrane homogenate)
T2 sequence (P28335 33-458): T1 sequence (P28335 33-458)
Method in brief: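 Affinity for the agonist site measured by radioligand binding in transfected CHO cells expressing the human receptor, using [125I](±)DOI.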

[4] = tested on: AMP-induced hyperactivity; assay: d-Amphetamine-induced hyperlocomotion in mice; format: in vivo
Description: as §1
In both humans and experimental animals amphetamine profoundly affects motor activity, sensorimotor function, sleep, attention, aggressive and sexual behaviors, learning and memory, operant behaviors, appetite and food intake. In addition, amphetamine induces psychotic reactions in normal individuals and exacerbates symptoms of schizophrenia in patients. In experimental animals several distinct behaviors are considered to be correlates of amphetamine psychosis. For example, amphetamine-induced hyperactivity in rodents is believed to model the psychotic symptoms of schizophrenia. Reversal of these behaviors is used to predict potential antipsychotic activity of drugs in pre-clinical studies.
as §2
On the day of experiment, animals were brought from the animal facility into the experimental room and were allowed to acclimatize for at least 30 minutes. Animals were then placed in the test cages for a habituation period of 60 minutes. The animals were then injected ip with the test compound and returned to the test cage. 30 Minutes later, the mice were injected with d-amphetamine (2.0 mg/kg, AMP, Sigma, #A5880, sc) or phencyclidine (2.0 mg/kg, PCP, Sigma, #P3029, sc), and returned to the test cages for 90 minutes. […] The analyzed data were: fine movements, ambulations and total movements (fine+ambulations). […]

5HT2C receptors [5] = target: T1, 5HT2C receptors; assay: Human 5-HT2C functional assay in CHO-K1 cells (calcium flux, FLIPR); format: cell-based; parameters: expressed in transfected cells; host or cells: CHO-K1 cells; conditions: for Emax: percentage relative to the effect of serotonin
Method in brief: (§3)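 EC50 came from a 4-parameter logistic fit, with Emax expressed relative to serotonin, of intracellular Ca2+ rises read on FLIPR at 480/530 nm, 25° C, over 3 min. Compounds ran from 10 μM in six 1:10 steps (0.2% DMSO) on serum-starved CHO-K1 transfectants pre-loaded 60 min with Ca4 dye and probenecid.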

spontaneous activity = assay: Spontaneous activity in mice; format: in vivo; conditions: vehicle or a dose of test compound, FIG. 2b, FIG. 3b
5HT2B receptors = target: T3, 5HT2B receptors (Homo sapiens, UniProt P41595); assay: Human 5-HT2B functional assay in CHO-K1 cells (calcium flux, FLIPR); format: cell-based
T3 construct: expressed in transfected cells; host or cells: CHO-K1 cells
Method in brief: as §3

T3 sequence (P41595 whole entry): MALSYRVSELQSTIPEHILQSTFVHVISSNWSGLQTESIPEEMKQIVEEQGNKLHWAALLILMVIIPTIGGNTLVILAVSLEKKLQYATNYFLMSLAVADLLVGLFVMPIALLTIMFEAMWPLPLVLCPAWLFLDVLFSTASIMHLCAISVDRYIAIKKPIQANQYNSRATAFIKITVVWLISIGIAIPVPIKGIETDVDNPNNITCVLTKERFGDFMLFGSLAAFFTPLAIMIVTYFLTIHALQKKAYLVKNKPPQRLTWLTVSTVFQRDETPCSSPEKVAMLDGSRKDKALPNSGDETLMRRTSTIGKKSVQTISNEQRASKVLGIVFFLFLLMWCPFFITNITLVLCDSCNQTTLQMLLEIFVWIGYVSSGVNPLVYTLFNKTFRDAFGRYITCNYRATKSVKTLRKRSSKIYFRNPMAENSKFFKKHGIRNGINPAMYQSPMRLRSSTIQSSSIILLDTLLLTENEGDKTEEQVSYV

| Compound | PCP-induced hyperactivity [1] | EC50 (5HT2C receptors [2]; 1321N1 cells stably transfected, maximum calcium response, read-out: EC50 (μM), 5-HT2c Agonist Activity) [µM] | Emax (5HT2C receptors [2]; 1321N1 cells, percentage relative to the effect of serotonin, read-out: Emax (%), 5-HT2c Agonist Activity) [%] | Ki [3] [µM] | AMP-induced hyperactivity ([4]; 10 and 30 mg/kg ip before d-amphetamine 2.0 mg/kg sc, FIG. 3a) | EC50 (5HT2C receptors [5]) [µM] | Emax (5HT2C receptors [5]; CHO-K1, read-out: Emax (%), 5-HT2c Agonist Activity, CHO-K1 cells) [%] | spontaneous activity (total activity counts) (spontaneous activity) | EC50 (5HT2B receptors) [µM] | AMP-induced hyperactivity ([4]; 1.0 and 3.0 mg/kg ip before d-amphetamine 2.0 mg/kg sc, FIG. 2a) | EC50 (5HT2C receptors [5]; CHO-K1 cells over-expressing 5HT2C, calcium flux, read-out: EC50 (μM), 5-HT2c Agonist Activity) [µM] | Emax (5HT2C receptors [5]; CHO-K1 cells, read-out: Emax (%), 5-HT2c Agonist Activity) [%] | EC50 (5HT2B receptors; CHO-K1 cells over-expressing 5HT2B, calcium flux, read-out: EC50 (μM), 5-HT2B Agonist Activity) [µM] |
| --- | --- | --- | --- | --- | --- | --- | --- | --- | --- | --- | --- | --- | --- |
| O=C1C[C@H]2CNCCN2c2ccccc2N1 [Example 2, (4aS)-1,2,3,4,4a,5-hexahydropyrazino[1,2-a][1,5]benzodiazepin-6(7H)-one] | attenuated PCP-induced hyperactivity significantly and in a dose dependent manner; also recorded: concentration-dependent effects of Example 2 attenuating the affect of phencyclidine (PCP) | 0.0192 | 90 | 0.016 | – | – | – | – | – | – | – | – | – |
| c1ccc2c(c1)OCC[C@H]1CNCCN21 [Example 169, (4aS)-2,3,4,4a,5,6-hexahydro-1H-pyrazino[2,1-d][1,5]benzoxazepine] | – | – | – | – | attenuated AMP-induced hyperactivity significantly and in a dose dependent manner; also recorded: concentration-dependent effects of Example 169 attenuating the affect of d-amphetamine | 0.001 | > 120 | no effects; also recorded: No change in spontaneous activity regardless of dose | > 10 | – | – | – | – |
| CCOc1ccc2c(c1)N1CCNC[C@@H]1CC(=O)N2 [Example 181, (4aS)-10-ethoxy-1,2,3,4,4a,5-hexahydropyrazino[1,2-a][1,5]benzodiazepin-6(7H)-one] | – | – | – | – | – | – | – | no effects; also recorded: No change in spontaneous activity regardless of dose | – | attenuated AMP-induced hyperactivity significantly and in a dose dependent manner; also recorded: concentration-dependent effects of Example 181 attenuating the affect of d-amphetamine | 0.02 | > 120 | > 10 |
